US20240239794A1, “PKC-Theta Modulators” (Exscientia AI Limited, priority 2021, published 2024)
Structures can show the parent of a compound that is named as a salt. Where two headings read alike, the source gives them in different places.

Columns and labels:
[1] = target: Recombinant human PKC-theta (His-tagged 362-706) (Homo sapiens (Human), UniProt Q04759); assay: PKC-theta inhibition assay (HTRF KinEASE kit); format: biochemical; conditions: ATP 6.5 μM
How it was run: (§1)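 HTRF KinEASE kinase assay, buffer supplemented with 10 mM MgCl2, 1 mM DTT, 0.1% Tween 20; enzyme at 10 ng/ml preincubated 30 min on ice with compound. PKC-theta: 525 nM STK substrate, 6.5 μM ATP, 30 min at 25° C; PKC-delta: 243 nM substrate, 5.7 μM ATP, 20 min. IC50 from 4-parameter fit of 10-dose series.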

[2] = target: Recombinant human PKC-delta (His-tagged 345-676) (Homo sapiens (Human), UniProt Q05655); assay: PKC-delta inhibition assay (HTRF KinEASE kit), PKC-theta/PKC-delta selectivity; format: biochemical; conditions: ratio; for PKC-theta/PKC-delta selectivity: PKC-theta over PKC-delta, HTRF assays; for PKC-theta/PKC-delta selectivity (binned): binned A to G
Chain of Recombinant human PKC-delta (His-tagged 345-676) (Q05655 345-676): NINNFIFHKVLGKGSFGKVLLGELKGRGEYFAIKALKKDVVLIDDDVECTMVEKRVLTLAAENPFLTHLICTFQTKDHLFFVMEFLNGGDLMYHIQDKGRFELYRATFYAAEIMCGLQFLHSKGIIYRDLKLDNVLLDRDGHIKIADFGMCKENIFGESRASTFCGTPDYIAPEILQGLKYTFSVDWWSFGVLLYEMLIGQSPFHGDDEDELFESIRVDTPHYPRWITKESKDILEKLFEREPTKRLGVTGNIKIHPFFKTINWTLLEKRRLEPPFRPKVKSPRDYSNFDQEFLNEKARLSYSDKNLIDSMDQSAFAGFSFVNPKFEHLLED
How it was run: as §1

[3] = system: IL-2 secretion by human effector memory T cells (TEM); assay: Effector memory T cells IL-2 release assay; format: cell-based; conditions: T-cell, 24 h
How it was run: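 Human CD4+ effector memory T cells (negatively sorted from donor PBMC), 5,000 per well, stimulated with CD3/CD28 beads and 10 semi-log compound doses for 24 h at 37° C, 0.1% DMSO. Supernatant IL-2 measured by HTRF; IC50 from 4-parameter logistic fit; viability checked by flow cytometry.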

[4] = binned A to H, read-out: PKC-theta HTRF pIC50 (binned) (converted)
[5] = read-out: PKC-theta HTRF pIC50 (converted)
[6] = human CD4+ TEM cells, CD3/CD28 bead stimulation, binned A to G, read-out: PKC-theta IL2 pIC50 (binned) (converted)
[7] = human CD4+ TEM cells, CD3/CD28 bead stimulation, read-out: PKC-theta IL2 pIC50 (converted)
[8] = Homo sapiens, read-out: PKC-theta IL2 pIC50 (binned) (converted)
[9] = Homo sapiens, read-out: PKC-theta IL2 pIC50 (converted)

Chain of Recombinant human PKC-theta (His-tagged 362-706) (Q04759 362-706): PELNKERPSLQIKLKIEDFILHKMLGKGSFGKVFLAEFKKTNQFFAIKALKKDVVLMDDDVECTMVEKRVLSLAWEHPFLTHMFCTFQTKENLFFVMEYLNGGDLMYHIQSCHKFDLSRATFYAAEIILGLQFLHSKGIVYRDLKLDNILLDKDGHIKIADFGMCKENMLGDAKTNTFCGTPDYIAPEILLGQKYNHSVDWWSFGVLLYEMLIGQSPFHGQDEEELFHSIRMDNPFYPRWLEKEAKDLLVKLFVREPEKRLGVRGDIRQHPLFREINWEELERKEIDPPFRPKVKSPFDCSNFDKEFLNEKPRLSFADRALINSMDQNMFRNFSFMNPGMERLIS

Compound | IC50 [1, 4] | IC50 [1, 5] | PKC-theta/PKC-delta selectivity [2] | PKC-theta/PKC-delta selectivity (binned) [2] | IC50 [3, 6] | IC50 [3, 7] | PKC-theta HTRF pIC50 [1] | IC50 [3, 8] | IC50 [3, 9]
CO[C@]1(C)C(=O)Nc2nccc(-c3nn([C@H]4CCNC[C@H]4F)c4ccccc34)c21 (single isomer, unassigned) [Example 91] | 3.16 to 10 nM | 7.94 nM | 19 | D (D means a ratio of between 10 and 20) | 100 to 316 nM | 126 nM | – | – | –
COCc1cc(-c2ccnc3[nH]c(=O)[nH]c23)cn1C1CCNCC1 [Example 4] | > 1000 nM | – | 2 | F (F means a ratio of between 1 and 5) | > 1000 nM | 3980 nM | 6.0 | – | –
CC1(C)C(=O)Nc2nccc(-c3nn(C[C@]4(C)COCCN4)c4cc(F)ccc34)c21 [Example 110] | 10 to 31.6 nM | – | 29 | C (C means a ratio of between 20 and 30) | > 1000 nM | 1000 nM | 7.6 | – | –
Cc1nn(C2CCNCC2)cc1-c1ccnc2[nH]c(=O)[nH]c12 [Example 2] | > 1000 nM | – | 0.2 | G (G means a ratio of between 0 and 1) | > 1000 nM | 10000 nM | 5.1 | – | –
CC1(C)C(=O)Nc2nccc(-c3nn(C4(CC#N)CCC4)c4ccccc34)c21 [Example 22] | 3.16 to 10 nM | – | 15 | D (D means a ratio of between 10 and 20) | 316 to 1000 nM | 316 nM | 8.0 | – | –
C[C@@]1(O)C(=O)Nc2nccc(-c3nn(CC4CCNCC4)c4ccccc34)c21 (single isomer, unassigned) [Example 29] | ≤ 1 nM | 0.398 nM | 24 | C (C means a ratio of between 20 and 30) | 31.6 to 100 nM | 39.8 nM | – | – | –
CCC1(O)C(=O)Nc2nccc(-c3nn(C4(CC#N)CCC4)c4ccccc34)c21 (stereo not drawn) [Example 51] | ≤ 1 nM | – | 11 | D (D means a ratio of between 10 and 20) | 10 to 31.6 nM | 15.8 nM | 9.3 | – | –
CCC1(C)C(=O)Nc2nccc(-c3nn([C@H]4CCNC4)c4ccccc34)c21 (stereo partly drawn) [Example 53] | 3.16 to 10 nM | – | 13 | D (D means a ratio of between 10 and 20) | 31.6 to 100 nM | 100 nM | 8.3 | – | –
CO[C@@]1(C)C(=O)Nc2nccc(-c3nn([C@@H]4CCNC[C@@H]4F)c4ccccc34)c21 (single isomer, unassigned) [Example 92] | 10 to 31.6 nM | 12.6 nM | 15 | D (D means a ratio of between 10 and 20) | 100 to 316 nM | 158 nM | – | – | –
COC1(C)C(=O)Nc2nccc(-c3nn(C4(CC#N)CCC4)c4ccccc34)c21 (stereo not drawn) [Example 57] | 1 to 3.16 nM | – | 14 | D (D means a ratio of between 10 and 20) | 31.6 to 100 nM | 50.1 nM | 8.9 | – | –
CC1(O)C(=O)Nc2nccc(-c3nn([C@@H]4CC[C@@H](N)[C@H](F)C4)c4ccccc34)c21 (stereo partly drawn) [Example 39] | ≤ 1 nM | – | 10 | E (E means a ratio of between 5 and 10) | 3.16 to 10 nM | 10 nM | 9.7 | – | –
CC1(C)C(=O)Nc2nccc(-c3nn([C@H]4CC[C@H](N)CC4)c4ccccc34)c21 [Example 41] | ≤ 1 nM | – | 14 | D (D means a ratio of between 10 and 20) | 10 to 31.6 nM | 15.8 nM | 9.4 | – | –
CC1(O)C(=O)Nc2nccc(-c3nn(C4CCNCC4)c4ccccc34)c21 (stereo not drawn) [Example 26] | 3.16 to 10 nM | – | 11 | D (D means a ratio of between 10 and 20) | 31.6 to 100 nM | 79.4 nM | 8.5 | – | –
CC1(C)C(=O)Nc2nccc(-c3nn(CC4(F)CCNC4)c4ccccc34)c21 (stereo not drawn) [Example 96] | 1 to 3.16 nM | – | 17 | D (D means a ratio of between 10 and 20) | 10 to 31.6 nM | 25.1 nM | 8.7 | – | –
C[C@@]1(O)C(=O)Nc2nccc(-c3nn(C4CCNCC4)c4ccccc34)c21 (single isomer, unassigned) [Example 27] | 31.6 to 100 nM | 50.1 nM | 5 | E (E means a ratio of between 5 and 10) | > 1000 nM | 1580 nM | – | – | –
CC1(C)C(=O)Nc2nccc(-c3nn(CC4(F)CCCNC4)c4ccccc34)c21 (stereo not drawn) [Example 44] | 31.6 to 100 nM | – | 14 | D (D means a ratio of between 10 and 20) | 100 to 316 nM | 251 nM | 7.5 | – | –
CC1(C)C(=O)Nc2nccc(-c3nn(C4(CC#N)CNC4)c4ccccc34)c21 [Example 46] | 3.16 to 10 nM | – | 3 | F (F means a ratio of between 1 and 5) | 100 to 316 nM | 158 nM | 8.2 | – | –
CC[C@@]1(C)C(=O)Nc2nccc(-c3nn([C@@H]4CCNC[C@@H]4F)c4ccc(F)cc34)c21 (single isomer, unassigned) [Example 97] | 1 to 3.16 nM | 2.51 nM | 23 | C (C means a ratio of between 20 and 30) | 31.6 to 100 nM | 39.8 nM | – | – | –
CC1(C)C(=O)Nc2nccc(-c3nn([C@H]4CCNC4)c4ccccc34)c21 [Example 16, 3,3-dimethyl-4-[1-[(3S)-pyrrolidin-3-yl]indazol-3-yl]-1H-pyrrolo[2,3-b]pyridin-2-one Dihydrochloride] | 3.16 to 10 nM | – | 18 | D (D means a ratio of between 10 and 20) | – | – | 8.3 | 31.6 to 100 nM | 63.1 nM
CC1(C)C(=O)Nc2nccc(-c3nn(C[C@@]4(C)COCCN4)c4cc(F)ccc34)c21 [Example 87] | ≤ 1 nM | – | 38 | B (B means a ratio of between 30 and 50) | 31.6 to 100 nM | 50.1 nM | 9.0 | – | –
O=c1[nH]c2nccc(-c3ccn(C4CCNCC4)c3)c2[nH]1 [Example 3, 7-[1-(4-piperidyl)pyrrol-3-yl]-1,3-dihydroimidazo[4,5-b]pyridin-2-one; Dihydrochloride] | 100 to 316 nM | – | 1 | F (F means a ratio of between 1 and 5) | – | – | 6.7 | > 1000 nM | 6310 nM
